Results taken from article PMC7181280, “Synthesis, Structure and In Vitro Anti-Trypanosomal Activity of Non-Toxic Arylpyrrole-Based Chalcone Derivatives” (Molecules, 2020).
Like-named read-outs stand apart in the source and are kept apart here.

Experiments:
[1] = test system: Trypanosoma brucei brucei 427 trypomastigotes; experiment: In vitro antitrypanosomal assay (resazurin parasite viability); type: cell-based; conditions: T. b. brucei 427 strain; for IC50: Trypanosoma brucei
Protocol: (§1) A single concentration (20 µM) cytotoxicity evaluation of all compounds was conducted in duplicates using a human cervix adenocarcinoma (HeLa) cell line, with emetine (EMT) included as a reference drug and cell viability relative to untreated cells assessed using resazurin. […] The anti-trypanosomal activity of prepared compounds against nagana T. b. brucei (the subspecies responsible for African trypanosomiasis in cattle) parasite cultures were determined using the T. b. brucei 427 strain. Pentamidine (PMD), which is an existing drug for the treatment of trypanosomiasis, was included as a positive control drug. The trypanocidal activity of each compound was initially assessed at a fixed concentration of 20 μM, using resazurin as a read-out of cell viability after compound exposure. […] From Table 1, the structural modification was initially performed on the arylpyrrole moiety (ring B) of the chalcones, while keeping the ring A unchanged. […] Introduction of the fluorine, highly electronegative atom, at the para-position (10b) appeared to enhance the activity against T. b. brucei; however, the activity diminished when the fluorine was replaced by chlorine (10c).
Trypanosoma brucei brucei 427 trypomastigotes were cultured in Iscove’s Modified Dulbecco’s medium (IMDM, Lonza, Basel Switzerland) and supplemented with 10% fetal calf serum, HMI-9 supplement, hypoxanthine and penicillin/streptomycin at 37 °C in a 5% CO2 incubator. Serial dilutions of test compounds were incubated with the parasites in 96-well plates for 24 h, and residual parasite viability in the wells determined by adding 20 µL resazurin toxicology reagent (Sigma-Aldrich) and incubating for an additional 24 h. Reduction of resazurin to resorufin by viable parasites was assessed by fluorescence readings (excitation 560 nm, emission 590 nm) in a Spectramax M3 plate reader (Molecular Devices, San Jose, CA, USA). Fluorescence readings were converted to % parasite viability relative to the average readings obtained from untreated control wells. IC50 values were determined by plotting % viability vs. log[compound] and performing non-linear regression using GraphPad Prism (v. 5.02) software.

[2] = In vitro cytotoxicity assay, HeLa cells (resazurin cell viability); type: cell-based; conditions: human
Protocol: as §1
HeLa cells (Cellonex, Johannesburg, South Africa) seeded in 96-well plates were incubated with 20 µM test compounds and cell viability assessed with resazurin, as previously described. Fluorescence readings (excitation 560 nm, emission 590 nm) obtained for the individual wells were converted to % cell viability relative to the average readings obtained from untreated control wells. Plots of % cell viability vs. log[compound] were used to determine IC50 values by non-linear regression using GraphPad Prism (v. 5.02).

[3] = 48 h, 24 h compound incubation + 24 h resazurin, na = not active (cell viability ≥50% in preliminary single point assay at 20 μM), read-out: T. b. brucei IC50
[4] = 24 h compound incubation + 24 h resazurin, na = not active (cell viability ≥50% in preliminary single point assay at 20 μM)

Row | Structure (SMILES) | IC50 [1, 3] | viability at 20 µM [2] | also measured
1 | Cc1cc(/C=C/C(=O)c2cc(Br)ccc2O)c(C)n1-c1ccccc1 [Compound 10a, (E)-1-(5-Bromo-2-hydroxyphenyl)-3-(2,5-dimethyl-1-phenyl-1H-pyrrol-3-yl)prop-2-en-1-one] | 11.5 µM | > 100% | –
2 | Cc1cc(/C=C/C(=O)c2cc(Br)ccc2O)c(C)n1-c1ccc(F)cc1 [Compound 10b, (E)-1-(5-Bromo-2-hydroxyphenyl)-3-(1-(4-fluorophenyl)-2,5-dimethyl-1H-pyrrol-3-yl)prop-2-en-1-one] | 6.9 µM | > 100% | –
3 | Cc1cc(/C=C/C(=O)c2cc(Br)ccc2O)c(C)n1-c1ccc(Cl)cc1 [Compound 10c, (E)-1-(5-Bromo-2-hydroxyphenyl)-3-(1-(4-chlorophenyl)-2,5-dimethyl-1H-pyrrol-3-yl)prop-2-en-1-one] | 40 µM | > 100% | –
4 | Cc1cc(/C=C/C(=O)c2cc(Br)ccc2O)c(C)n1-c1ccc(Br)cc1 [Compound 10d, (E)-1-(5-Bromo-2-hydroxyphenyl)-3-(1-(4-bromophenyl)-2,5-dimethyl-1H-pyrrol-3-yl)prop-2-en-1-one] | 10.5 µM | > 100% | –
5 | Cc1cc(/C=C/C(=O)c2cc(Br)ccc2O)c(C)n1-c1cccc(C(F)(F)F)c1 [Compound 10e, (E)-1-(5-Bromo-2-hydroxyphenyl)-3-(2,5-dimethyl-1-(3-(trifluoromethyl)phenyl)-1H-pyrrol-3-yl)prop-2-en-1-one] | 4.09 µM | > 100% | –
6 | Cc1cc(/C=C/C(=O)c2cc(Br)ccc2O)c(C)n1-c1ccc(C(F)(F)F)cc1 [Compound 10f, (E)-1-(5-Bromo-2-hydroxyphenyl)-3-(2,5-dimethyl-1-(4-(trifluoromethyl)phenyl)-1H-pyrrol-3-yl)prop-2-en-1-one] | 11.4 µM | > 100% | –
7 | Cc1cc(/C=C/C(=O)c2cc(Br)ccc2O)c(C)n1-c1ccccc1C(F)(F)F [Compound 10g, (E)-1-(5-Bromo-2-hydroxyphenyl)-3-(2,5-dimethyl-1-(2-(trifluoromethyl)phenyl)-1H-pyrrol-3-yl)prop-2-en-1-one] | 10 µM | > 100% | –
8 | Cc1cc(/C=C/C(=O)c2cc(Br)ccc2O)c(C)n1-c1ccc([N+](=O)[O-])cc1 [Compound 10h, (E)-1-(5-Bromo-2-hydroxyphenyl)-3-(2,5-dimethyl-1-(4-nitrophenyl)-1H-pyrrol-3-yl)prop-2-en-1-one] | < 6 µM | > 100% | –
9 | Cc1cc(/C=C/C(=O)c2cc(Br)ccc2O)c(C)n1-c1cccc([N+](=O)[O-])c1 [Compound 10i, (E)-1-(5-bromo-2-hydroxyphenyl)-3-(2,5-dimethyl-1-(3-nitrophenyl)-1H-pyrrol-3-yl)prop-2-en-1-one] | < 10 µM | 51.2% | –
10 | COc1ccc(-n2c(C)cc(/C=C/C(=O)c3cc(Br)ccc3O)c2C)cc1 [Compound 10j, (E)-1-(5-Bromo-2-hydroxyphenyl)-3-(1-(4-methoxyphenyl)-2,5-dimethyl-1H-pyrrol-3-yl)prop-2-en-1-one] | – | > 100% | T. b. brucei IC50 [1, 4]: no activity
11 | Cc1cc(/C=C/C(=O)c2cc(Br)ccc2O)c(C)[nH]1 [Compound 10k, (E)-1-(5-Bromo-2-hydroxyphenyl)-3-(2,5-dimethyl-1H-pyrrol-3-yl)prop-2-en-1-one] | – | > 100% | T. b. brucei IC50 [1, 4]: complete loss of activity
12 | Cc1cc(/C=C/C(=O)c2cc(Br)ccc2O)c(C)n1C1CCCCC1 [Compound 10l, (E)-1-(5-Bromo-2-hydroxyphenyl)-3-(1-cyclohexyl-2,5-dimethyl-1H-pyrrol-3-yl)prop-2-en-1-one] | 11.5 µM | 99.2% | –
13 | O=C(/C=C/c1c[nH]cn1)c1cc(Br)ccc1O [Compound 11a, (E)-1-(5-Bromo-2-hydroxyphenyl)-3-(1H-imidazol-4-yl)prop-2-en-1-one] | – | 78.1% | T. b. brucei IC50 [1, 4]: no activity
14 | COc1ccc2nc(Cl)c(/C=C/C(=O)c3cc(Br)ccc3O)cc2c1 [Compound 11b] | 9.1 µM | 99.3% | –
15 | Cc1cc(/C=C/C(=O)c2ccccc2)c(C)n1-c1ccc([N+](=O)[O-])cc1 [Compound 12, (E)-3-(2,5-Dimethyl-1-(4-nitrophenyl)-1H-pyrrol-3-yl)-1-phenylprop-2-en-1-one] | – | 84.7% | melting point: 169 to 174 °C
16 | Cc1ccc(C(=O)/C=C/c2cc(C)n(-c3ccc([N+](=O)[O-])cc3)c2C)cc1 [Compound 13, (E)-3-(2,5-Dimethyl-1-(4-nitrophenyl)-1H-pyrrol-3-yl)-1-(p-tolyl)prop-2-en-1-one] | 44.3 µM | > 100% | melting point: 172 to 173 °C
17 | Cc1cc(/C=C/C(=O)c2ccc(F)cc2)c(C)n1-c1ccc([N+](=O)[O-])cc1 [Compound 14, (E)-3-(2,5-Dimethyl-1-(4-nitrophenyl)-1H-pyrrol-3-yl)-1-(4-fluorophenyl)prop-2-en-1-one] | 36.5 µM | 99.4% | melting point: 160 to 164 °C
18 | COc1ccc(C(=O)/C=C/c2cc(C)n(-c3ccc([N+](=O)[O-])cc3)c2C)cc1 [Compound 15, (E)-3-(2,5-Dimethyl-1-(4-nitrophenyl)-1H-pyrrol-3-yl)-1-(4-methoxyphenyl)prop-2-en-1-one] | 12.3 µM | 98.9% | melting point: 157 to 158 °C
19 | COc1ccc(C(=O)/C=C/c2cc(C)n(-c3ccc([N+](=O)[O-])cc3)c2C)c(OC)c1 [Compound 16, (E)-1-(2,4-Dimethoxyphenyl)-3-(2,5-dimethyl-1-(4-nitrophenyl)-1H-pyrrol-3-yl)prop-2-en-1-one] | 10.6 µM | > 100% | –
20 | Cc1cc(/C=C/C(=O)c2ccc([N+](=O)[O-])cc2)c(C)n1-c1ccc([N+](=O)[O-])cc1 [Compound 17, (E)-3-(2,5-Dimethyl-1-(4-nitrophenyl)-1H-pyrrol-3-yl)-1-(4-nitrophenyl)prop-2-en-1-one] | – | – | viability at 20 µM ([2]; single concentration 20 µM, duplicates, relative to untreated cells, read-out: HeLa %Viability (residual percentage viability)): > 100%; melting point: 175 to 178 °C
21 | Cc1cc(/C=C/C(=O)c2cc(Cl)ccc2O)c(C)n1-c1cccc(C(F)(F)F)c1 [Compound 18, (E)-1-(5-Chloro-2-hydroxyphenyl)-3-(2,5-dimethyl-1-(3-(trifluoromethyl)phenyl)-1H-pyrrol-3-yl)prop-2-en-1-one] | 9.3 µM | 79.9% | –
22 | Cc1cc(/C=C/C(=O)c2cc(Cl)ccc2O)c(C)n1-c1cccc([N+](=O)[O-])c1 [Compound 19, (E)-1-(5-Chloro-2-hydroxyphenyl)-3-(2,5-dimethyl-1-(3-nitrophenyl)-1H-pyrrol-3-yl)prop-2-en-1-one] | 11.7 µM | 81.2% | –
23 | CC[C@H]1CN2CCc3cc(OC)c(OC)cc3[C@@H]2C[C@@H]1C[C@H]1NCCc2cc(OC)c(OC)cc21 [EMT, emetine, reference compound] | – | – | IC50 ([2]; HeLa cells, resazurin, read-out: HeLa cytotoxicity of reference drug (printed in the %Viability column with unit μM)): 0.76 µM
24 | N=C(N)c1ccc(OCCCCCOc2ccc(C(=N)N)cc2)cc1 [PMD, Pentamidine, reference compound] | – | – | IC50 ([1]; read-out: T. b. brucei IC50 (positive control drug)): 0.00068 µM
